Tests used:
Test in all cases: Seed germination and seedling shoot/root growth test in petridishes
Assay type in all cases: in vivo
[1] = test system: Trigonella foenum-graecum; details: Trigonella foenum graecum, control = 100%
Method: (§1) As noted above the activity of phyllocladane diterpenoids used in the practice of this invention was observed when these compounds were tested for their effects on seed germination, root and shoot growth of certain plant species and their antagonistic effect on plant growth retardants by the method described by Bagchi G. D. et al Phytochemistry, 45(6)1131-1133, 1997.
(§2) Plant growth promoting activity of calliterpenone, calliterpenone monoacetate, and calliterpenone di-acetate was examined at 0.1, 0.01 and 0.001 μM concentrations. The tests were conducted against seeds of two monocotyledonous (Hordeum vulgare and Triticum aestivum) and two dicotyledonous plants (Vigna radiata and Trigonella foenum-graecum). Control seeds were germinated in distilled water and all the observations were compared with […]. The root and shoot growth of all the plant species were affected by the phyllocladane diterpenoids, although the extent of effect varied considerably in the plant species with the chemicals and their concentrations. […] Details of the procedure adopted and results obtained are discussed in the various examples.
(§3) 100 ml stalk solutions of 0.1 μM concentration were prepared by dissolving required amounts of various test compounds (depending upon their molecular weights) in minimum amount of ethanol or acetone and adding distilled water. From this stalk solution, 0.01 μM and 0.001 μM concentrations were prepared. Calliterpenone and calliterpenone di acetate was dissolved in 2.0 ml absolute ethanol (Merc), while; calliterpenone monoacetate, isopropylideno calliterpenone and trihydroxy calliterpenone were dissolved in 2.0 ml spectral grade acetone (Ranbaxy). The respective control test solutions of distilled water of each concentration also contained equal amount of absolute ethanol or acetone. For an assay, 10 seeds were placed on Whatman filter paper (moistened with 5.0 ml of test solution in a 9.0 cm diameter petridish (in triplicate). The pteridishes were incubated for 9 days in a germinator, maintained at 25.0±1.0° C. with 90% humidity and 4 hr light/day. At the end of incubation, observations were recorded on the seedlings in terms of germination, shoot and root growth. The data on the length of shoot and root of seedlings and number of seeds germinated in different concentrations of compounds were compared with the control, which was taken as 100%. The data thus obtained were presented in Table-1.
(§4) Root growth of seedlings was measured in the similar way as shoot growth from the experiment as described in Example 1.
(§5) Effect of test compounds on germination was observed from the same experiment as described in Example 1.

Hordeum vulgare = details: control = 100%
Method: as §1, §2, §3, §4, §5

Triticum aestivum = details: control = 100%
Method: as §1, §2, §3, §4, §5

Vigna radiata = details: Vigna radiata, control = 100%
Method: as §1, §2, §3, §4, §5

Compound | Percent (%) germination of seeds in relation to control on 9th day after sowing ([1]; 0.001 μM) [%] | Percent (%) root growth of seedlings in relation to control on 9th day after sowing ([1]; 0.001 μM) [%] | Percent (%) shoot growth of seedlings in relation to control on 9th day after sowing ([1]; 0.001 μM) [%] | Percent (%) germination of seeds in relation to control on 9th day after sowing ([1]; 0.01 μM) [%] | Percent (%) root growth of seedlings in relation to control on 9th day after sowing ([1]; 0.01 μM) [%] | Percent (%) shoot growth of seedlings in relation to control on 9th day after sowing ([1]; 0.01 μM) [%] | Percent (%) germination of seeds in relation to control on 9th day after sowing ([1]; 0.1 μM) [%] | Percent (%) root growth of seedlings in relation to control on 9th day after sowing ([1]; 0.1 μM) [%] | Percent (%) shoot growth of seedlings in relation to control on 9th day after sowing ([1]; 0.1 μM) [%] | Percent (%) germination of seeds in relation to control on 9th day after sowing (Hordeum vulgare; 0.001 μM) [%] | Percent (%) root growth of seedlings in relation to control on 9th day after sowing (Hordeum vulgare; 0.001 μM) [%] | Percent (%) shoot growth of seedlings in relation to control on 9th day after sowing (Hordeum vulgare; 0.001 μM) [%] | Percent (%) germination of seeds in relation to control on 9th day after sowing (Hordeum vulgare; 0.01 μM) [%] | Percent (%) root growth of seedlings in relation to control on 9th day after sowing (Hordeum vulgare; 0.01 μM) [%] | Percent (%) shoot growth of seedlings in relation to control on 9th day after sowing (Hordeum vulgare; 0.01 μM) [%] | Percent (%) germination of seeds in relation to control on 9th day after sowing (Hordeum vulgare; 0.1 μM) [%] | Percent (%) root growth of seedlings in relation to control on 9th day after sowing (Hordeum vulgare; 0.1 μM) [%] | Percent (%) shoot growth of seedlings in relation to control on 9th day after sowing (Hordeum vulgare; 0.1 μM) [%] | Percent (%) germination of seeds in relation to control on 9th day after sowing (Triticum aestivum; 0.001 μM) [%] | Percent (%) root growth of seedlings in relation to control on 9th day after sowing (Triticum aestivum; 0.001 μM) [%] | other results
CC1(C)OCC2(CC34CCC5C(C)(C)C(=O)CCC5(C)C3CCC2C4)O1 (stereo not drawn) [Isopropylideno Calliterpenone, 16α, 17-isopropylidino 3-oxo phyllocladane] | 100 | 132 | 137 | 113 | 123 | 123 | 100 | 91 | 100 | 100 | 118 | 106 | 100 | 115 | 107 | 100 | 143 | 108 | 100 | 109 | Percent (%) root growth of seedlings in relation to control on 9th day after sowing ([1]; 0.01 μM, listed as Iso-propylideno calliterpenone): 132%; Percent (%) shoot growth of seedlings in relation to control on 9th day after sowing (Triticum aestivum; 0.001 μM): 103%; Percent (%) germination of seeds in relation to control on 9th day after sowing (Triticum aestivum; 0.01 μM): 100%; Percent (%) root growth of seedlings in relation to control on 9th day after sowing (Triticum aestivum; 0.01 μM): 107%; Percent (%) shoot growth of seedlings in relation to control on 9th day after sowing (Triticum aestivum; 0.01 μM): 103%; Percent (%) germination of seeds in relation to control on 9th day after sowing (Triticum aestivum; 0.1 μM): 100%; Percent (%) root growth of seedlings in relation to control on 9th day after sowing (Triticum aestivum; 0.1 μM): 78%; Percent (%) shoot growth of seedlings in relation to control on 9th day after sowing (Triticum aestivum; 0.1 μM): 102%; Percent (%) germination of seeds in relation to control on 9th day after sowing (Vigna radiata; 0.001 μM): 150%; Percent (%) root growth of seedlings in relation to control on 9th day after sowing (Vigna radiata; 0.001 μM): 91%; Percent (%) shoot growth of seedlings in relation to control on 9th day after sowing (Vigna radiata; 0.001 μM): 89%; Percent (%) germination of seeds in relation to control on 9th day after sowing (Vigna radiata; 0.01 μM): 100%; Percent (%) root growth of seedlings in relation to control on 9th day after sowing (Vigna radiata; 0.01 μM): 131%; Percent (%) shoot growth of seedlings in relation to control on 9th day after sowing (Vigna radiata; 0.01 μM): 153%; Percent (%) germination of seeds in relation to control on 9th day after sowing (Vigna radiata; 0.1 μM): 100%; Percent (%) root growth of seedlings in relation to control on 9th day after sowing (Vigna radiata; 0.1 μM): 124%; Percent (%) shoot growth of seedlings in relation to control on 9th day after sowing (Vigna radiata; 0.1 μM): 145%
CC(=O)OCC1(OC(C)=O)CC23CCC4C(C)(C)C(=O)CCC4(C)C2CCC1C3 (stereo not drawn) [Calliterpenone Diacetate, calliterpenone diacetate] | 100 | 73 | 81 | 100 | 113 | 121 | 75 | 95 | 94 | 100 | 119 | 108 | 100 | 113 | 106 | 100 | 98 | 105 | 100 | 125 | Percent (%) root growth of seedlings in relation to control on 9th day after sowing ([1]; 0.001 μM, listed as Calliterpenone diacetate): 113%; Percent (%) root growth of seedlings in relation to control on 9th day after sowing (Hordeum vulgare; 0.01 μM, listed as Calliterpenone diacetate): 119%; Percent (%) shoot growth of seedlings in relation to control on 9th day after sowing (Triticum aestivum; 0.001 μM): 109%; Percent (%) germination of seeds in relation to control on 9th day after sowing (Triticum aestivum; 0.01 μM): 100%; Percent (%) root growth of seedlings in relation to control on 9th day after sowing (Triticum aestivum; 0.01 μM): 114%; Percent (%) shoot growth of seedlings in relation to control on 9th day after sowing (Triticum aestivum; 0.01 μM): 106%; Percent (%) germination of seeds in relation to control on 9th day after sowing (Triticum aestivum; 0.1 μM): 90%; Percent (%) root growth of seedlings in relation to control on 9th day after sowing (Triticum aestivum; 0.1 μM): 103%; Percent (%) shoot growth of seedlings in relation to control on 9th day after sowing (Triticum aestivum; 0.1 μM): 103%; Percent (%) germination of seeds in relation to control on 9th day after sowing (Vigna radiata; 0.001 μM): 200%; Percent (%) root growth of seedlings in relation to control on 9th day after sowing (Vigna radiata; 0.001 μM): 91%; Percent (%) shoot growth of seedlings in relation to control on 9th day after sowing (Vigna radiata; 0.001 μM): 111%; Percent (%) germination of seeds in relation to control on 9th day after sowing (Vigna radiata; 0.01 μM): 100%; Percent (%) root growth of seedlings in relation to control on 9th day after sowing (Vigna radiata; 0.01 μM): 136%; Percent (%) shoot growth of seedlings in relation to control on 9th day after sowing (Vigna radiata; 0.01 μM): 115%; Percent (%) germination of seeds in relation to control on 9th day after sowing (Vigna radiata; 0.1 μM): 100%; Percent (%) root growth of seedlings in relation to control on 9th day after sowing (Vigna radiata; 0.1 μM): 93%; Percent (%) shoot growth of seedlings in relation to control on 9th day after sowing (Vigna radiata; 0.1 μM): 119%
